Laboratory results: BindingDB's records for doi:10.1016/0024-3205(90)90472-4 (University of Arizona, 1990)

Target: T1, Muscarinic acetylcholine receptor M2 (Rattus norvegicus, UniProt P10980)
T1 sequence (P10980 whole entry): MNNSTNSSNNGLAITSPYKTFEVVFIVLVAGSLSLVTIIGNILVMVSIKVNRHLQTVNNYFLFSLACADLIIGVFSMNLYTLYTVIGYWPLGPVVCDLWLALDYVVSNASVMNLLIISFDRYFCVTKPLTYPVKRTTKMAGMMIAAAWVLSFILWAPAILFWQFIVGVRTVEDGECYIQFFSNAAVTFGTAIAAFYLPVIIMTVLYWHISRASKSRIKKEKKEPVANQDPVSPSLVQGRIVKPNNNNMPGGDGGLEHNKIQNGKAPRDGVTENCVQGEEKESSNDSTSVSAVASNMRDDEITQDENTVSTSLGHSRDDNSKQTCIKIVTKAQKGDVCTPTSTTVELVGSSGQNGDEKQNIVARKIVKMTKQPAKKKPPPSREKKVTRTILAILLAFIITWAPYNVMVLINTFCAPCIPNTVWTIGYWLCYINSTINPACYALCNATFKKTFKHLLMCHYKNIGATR

Compound: C[C@H]1OC(=O)C2C[C@H]3CCCC[C@@H]3[C@@H](/C=C/[C@@H]3CCC[C@H](C)N3C)C21 (stereo partly specified) [HIMBACINE]
- Ki: 10.2 nM
